According to patent US8697837B2, “Substrate for Rpn 11 enzymatic activity” (Onyx Therapeutics, Inc., priority 2005, dated 2014):
Blank lines part the entries; values can stand above or below the compound they belong to. Where no end group is shown, it is not given here. Ub4 = N-terminal tetraubiquitin moiety

Columns and labels:
Rpn11 = Rpn11 (Saccharomyces cerevisiae, UniProt P43588); conditions: purified 26S proteasome complex; cited from earlier work
[1] = target: T1, chymotryptic-like activity of the 20S proteasome (Homo sapiens, UniProt P20618+P28074); assay: Example 2 screen: liberation of AMC from LLVY-AMC; format: biochemical; conditions: substrate LLVY-AMC; method of Example 2
T1 construct: 26S proteasome purified from humans and purchased from BioMol; purchased BioMol
Protocol: (§1) 4) 26S proteasome purified from humans and purchased from BioMol;
(§2) 5 μl of compound [30 μM compound in Buffer A+1% DMSO], 5 μl of substrate [30 nM Ub4-pep-C14(29)-Oregon Green and 15 μM LLVY-AMC in Buffer A] and 5 μl enzyme [1.5 nM 26S proteasomes] were mixed in a 384 well plates and incubated at 28° C. for 75 minutes. Reactions were stopped with the addition of […] 20S inhibitor (PR-171) and 4 mM EDTA. Processing of the 20S substrate LLVY-AMC to liberate AMC was determined by measuring the AMC fluorescence [excitation at 340 nm; emission at 465 nm]. Processing of the 19S substrate Ub4-pep-C14(29)-Oregon Green to liberate pep-C14(29)-Oregon Green was determined by measuring the fluorescence polarization of Oregon Green [excitation at 485 nm; emission at 535 nm].
Modulators of the 20S proteasome activity affect liberation of AMC from LLVY-AMC (second non-ubiquitinated substrate) and affect the chymotryptic-like activity of the 20S proteasome.

Rpn11 (26S proteasome) [2] = target: T2, Rpn11 (26S proteasome) (Homo sapiens, UniProt O00487); assay: SDS-PAGE assay of Ub4-peptide substrate proteolysis by 26S proteasome; format: biochemical; conditions: for inhibition of proteolysis of the substrate Ub4-peptide(29) and Ub4-peptide-C14(29) by the 26S proteasome: FIG. 1, 60 nM 26S proteasome, 2 h 37 °C, 5 mM ATPγS, 1 mM OPA, 5 μM Ub-aldehyde, SDS-PAGE
T2 construct: To date, a recombinant form of Rpn11 has not been generated
Protocol: Each peptide substrate further comprises an N-terminal ubiquitin moiety that has 4 Ub repeats (Ub4). […] 2 μg of Ub4-peptide(29) or Ub4-peptide-C14(29) were incubated with 60 nM 26S proteasome in buffer B [50 mM Tris pH 8.0; 10 mM MgCl2; 1 mM DTT; 1 mM ATP] and where indicated 5 mM ATPγS, 1 mM O-phenanthroline (OPA) and 5 μM ubiquitin aldehyde (Ub-aldehyde) in a volume of 20 μl for 2 hours at 37° C. Reactions were stopped by adding 7.5 μl loading dye and boiled at 100° C. for 5 minutes. Reactions were then loaded on an SDS-PAGE gel, reaction products were separated by electrophoresis and bands were visualized with brilliant blue.
Each peptide substrate further comprises an N-terminal ubiquitin moiety that has 4 Ub repeats (Ub4).

Rpn11 (26S proteasome) [3] = target: T2, Rpn11 (26S proteasome); assay: High throughput fluorescence polarization assay of Ub4-peptide(29)-fluorescein proteolysis by 26S proteasome; format: biochemical; conditions: FIG. 5A/5B; 100 nM substrate, 10 nM 26S proteasome, 28 °C, various inhibitor concentrations
Protocol: Various concentrations (as indicated) of Ub4-peptide(29) coupled to Fluorescein-5-maleimide was incubated with 10 nM 26S proteasome in 50 mM Tris pH 8.0; 10 mM MgCl2; 1 mM DTT; 1 mM ATP at 28° C., and the liberation of peptide(29)-fluorescein was measured by fluorescence polarization (excitation at 485 nm; emission at 510 nm).
FIG. 5A illustrates a high throughput (HTP) FP assay that detects O-phenanthroline inhibition of Rpn11 activity. […] 100 nM Ub4-peptide coupled to fluorescein-5-maleimide was incubated with 10 nM 26S proteasome in 50 mM Tris pH 8.0; 10 mM MgCl2; 1 mM DTT; 1 mM ATP at 28° C. and the liberation of peptide was measured by fluorescence polarization (excitation at 485 nm; emission at 510 nm) in the presence of various concentrations of o-phenanthroline (as indicated).
FIG. 5B illustrates that Rpn11 enzymatic activity is unaffected by the presence of a 20S proteasome inhibitor in the HTP FP assay using a peptide substrate of the application. […] 100 nM Ub4-peptide coupled to fluorescein-5-maleimide was incubated with 10 nM 26S proteasome in 50 mM Tris pH 8.0; 10 mM MgCl2; 1 mM DTT; 1 mM ATP at 28° C. and the liberation of peptide was measured by fluorescence polarization (excitation at 485 nm; emission at 510 nm) in the presence of various concentrations of 20S proteasome inhibitor (as indicated).

19S proteasome = assay: Example 2 screen: liberation of pep-C14(29)-Oregon Green from Ub4-pep-C14(29)-Oregon Green (fluorescence polarization); format: biochemical, human; conditions: method of Example 2
Protocol: as §1, §2
Modulators of the 19S proteasome activity affect liberation of pep-C14(29)-Oregon Green from Ub4-pep-C14(29)-Oregon Green (first ubiquitinated substrate).

[4] = target: ubiquitin or polyubiquitin chains (Homo sapiens, UniProt P0CG48); conditions: cited from earlier work
Ub4-pep-C14(29) = assay: Intrinsic fluorescence of ubistatin A on incubation with Ub4-pep-C14(29); format: binding; conditions: 2.5 μM ubistatin A with 2.5 μM Ub4-pep-C14(29); excitation 350 nm, emission 450 nm
Excerpt: A test agent that binds ubiquitin can affect the binding of ubistatin A (C92) to Ub4-pep-C14(29). This can be determined by measuring the intrinsic fluorescence of ubistatin A (C92) [excitation at 350 nm; emission at 450 nm] with Ub4-pep-C14(29) in the presence or absence of a test agent, which is a competition assay between ubistatin A and the test agent for binding to the ubiquitin.

[5] = FIG. 2, 60 nM 26S proteasome from source A
[6] = FIG. 2, 60 nM 26S proteasome from source B

Chain of Rpn11 (P43588 whole entry): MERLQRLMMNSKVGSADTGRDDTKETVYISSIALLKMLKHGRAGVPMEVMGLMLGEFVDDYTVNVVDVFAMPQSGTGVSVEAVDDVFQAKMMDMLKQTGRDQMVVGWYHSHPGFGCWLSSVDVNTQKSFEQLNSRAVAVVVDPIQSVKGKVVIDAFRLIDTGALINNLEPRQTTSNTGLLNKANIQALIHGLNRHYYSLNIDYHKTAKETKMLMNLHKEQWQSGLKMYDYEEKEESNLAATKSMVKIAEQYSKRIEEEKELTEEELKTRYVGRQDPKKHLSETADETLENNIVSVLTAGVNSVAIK

effect on the chymotryptic-like activity of the 20S proteasome [1]: affect
Compound: COc1cccc(OC)c1C(=O)N1CCC(c2nc(-c3ccc(Br)cc3)no2)CC1 [Compound 1]

inhibition of proteolysis of the substrate Ub4-peptide(29) and Ub4-peptide-C14(29) by the 26S proteasome (Rpn11 (26S proteasome) [2]): inhibited
inhibition of proteolysis of the substrate Ub4-peptide-C14(14) (Rpn11 (26S proteasome) [2]; [5]): inhibited
inhibition of proteolysis of the substrate Ub4-peptide-C14(14) (Rpn11 (26S proteasome) [2]; [6]): not
effect on kinetics of Ub4-peptide(29)-fluorescein proteolysis by the 26S proteasome (Rpn11 (26S proteasome) [3]): affects
Compound: c1cnc2c(c1)ccc1cccnc12 [o-phenanthroline, 1,10-phenanthroline]

inhibition of proteolysis of the substrate Ub4-peptide(29) and Ub4-peptide-C14(29) by the 26S proteasome (Rpn11 (26S proteasome) [2]): not
Compound: ubiquitin aldehyde
sensitivity of the deubiquitinating activity associated with Rpn11 (Rpn11): insensitivity

effect on the chymotryptic-like activity of the 20S proteasome [1]: affect
Compound: COc1cccc(OC)c1C(=O)N1CCC(c2nc(-c3ccc(C)cc3)no2)CC1 [Compound 2]

effect on the chymotryptic-like activity of the 20S proteasome [1]: affect
Compound: CC(C)c1cc(OC(=O)c2cc(C(F)(F)F)cc(C(F)(F)F)c2)n(-c2ccc([N+](=O)[O-])cc2)n1 [Compound 3]

The remaining lines, values behind:

Compound: ubiquitin vinylsulphone
sensitivity of the deubiquitinating activity associated with Rpn11 (Rpn11): insensitivity

Compound: O=C(c1ccc(CSc2ccc(-c3ccc(-c4ccccc4)cc3)nn2)o1)N1CCCC1 [Compound 4]
processing of the substrate Ub4-pep-C14(29)-Oregon Green by the 19S proteasome (19S proteasome): prevents

Compound: O=C(Nc1ccc(/C=C/c2ccc(NC(=O)c3cc(S(=O)(=O)O)c4cccnc4c3O)cc2S(=O)(=O)O)c(S(=O)(=O)O)c1)c1cc(S(=O)(=O)O)c2cccnc2c1O [Ubistatin A]
intrinsic fluorescence detected from Compound 92 on binding to a protein substrate [4]: increases
intrinsic fluorescence of ubistatin A (C92) (Ub4-pep-C14(29)): increases several fold

Compound: Nc1ncnc2c1ncn2[C@@H]1O[C@H](COP(=O)(O)OP(=O)(O)OP(O)(O)=S)[C@@H](O)[C@H]1O [ATPγS]
inhibition of proteolysis of the substrate Ub4-peptide(29) and Ub4-peptide-C14(29) by the 26S proteasome (Rpn11 (26S proteasome) [2]): inhibited
inhibition of proteolysis of the substrate Ub4-peptide-C14(14) (Rpn11 (26S proteasome) [2]; [5]): inhibited
inhibition of proteolysis of the substrate Ub4-peptide-C14(14) (Rpn11 (26S proteasome) [2]; [6]): not

Compound: Ub4-peptide-C14(14): peptide of SEQ ID NO:15 with S14 changed to C14 and an N-terminal Ub4 moiety; Rpn11 substrate (Ub4-MQIFVKTLRANSSC)
effect of changing S14 to C14 on substrate's ability to be recognized and cleaved by Rpn11 (Rpn11 (26S proteasome) [2]; FIG. 2, SEQ ID NO:15, N-terminal Ub4): does not alter
